For eight compounds, NO-release concentrations, inhibition and IC50 results are on record in US12624012B2, “14-chloro-β-elemene nitric oxide donor derivative and preparation method and use thereof” (HANGZHOU NORMAL UNIVERSITY, priority 2021, dated 2026).

Test [1] can be described thus: In vitro NO release test (incubation with L-cysteine, OD at 550 nm). Particulars: 100 μM solution with cysteine solution, 37° C. The protocol:
• (1) Sodium nitrite solutions with different concentrations were prepared. A calibration curve was drawn. • (2) The sample was treated. A 100 μM solution was prepared. 2.5 mL of the prepared compound solution and 2.5 mL of the cysteine solution were taken and incubated at 37° C. for 120 min, and the resulting mixture was sampled at different time points. • (3) A blank hole and a standard hole were set. 160 μL of the sample was collected and mixed evenly with 0.08 mL of a developer and stood at 37° C. for 15 min. At λ=550 nm, the OD value of absorbance was measured by the enzyme marker. The NO release levels were obtained by substituting the value into the standard curve.

For another test, the system named is SW620. The test is described as follows: In vitro anti-tumor activity evaluation test (CCK-8), SW620. In kind it is cell-based, human. Particulars: Homo sapiens, SW-620, SW620, 72 h; for inhibition at 1 µM: read-out: Inhibitory rates against tumor cell lines. The protocol:
(§1) • (1) Cells were digested and counted. Cell suspensions (H520, SW620 5.0×10^4 cells/mL, and U87MG 3.5×10^4 cells/mL) were prepared. 100 μL of cell suspension was added to each well of a 96-well cell culture plate. • (2) The 96-well cell culture plate was incubated in a 37° C., 5%, CO2 incubator for 24 h. • (3) A drug was diluted with a culture medium to a desired working solution concentration. 100 μL of the corresponding drug-containing culture medium was added to each well. At the same time, a negative control group and a positive control group were set up. • (4) The 96-well cell culture plate was incubated in a 37° C., 5%, CO2 incubator for 72 h. • (5) The 96-well plate was stained with CCK-8, and at λ=450 nm, the OD value was determined. • 1) 10 μL of CCK-8 was added to each well. The culture plate continued to be incubated in the incubator for 2-3 h. • 2) The culture plate was rocked for 10 min to gently mix and remove air bubbles from the 96-well plate. • 3) At λ=450 nm, the OD value of each well was read by the enzyme marker, and the inhibitory rates were calculated. • (6) According to the following equation (1), the growth inhibitory rate of the tumor cells was obtained. The obtained results were substituted into an IC 50 calculation software SPSS17.0 to find out the IC50 value.

A further test deals with U87MG. The test is described as follows: In vitro anti-tumor activity evaluation test (CCK-8), U87MG. In kind it is cell-based, human. As to conditions: Homo sapiens, U-87 MG, U87MG, 72 h; for inhibition at 1 µM: read-out: Inhibitory rates against tumor cell lines; for IC50: read-out: IC50 against different tumor cell lines. The protocol: as §1
A further test concerns NCI-H520. The test can be described thus: In vitro anti-tumor activity evaluation test (CCK-8), NCI-H520. In kind it is cell-based, human. Particulars: Homo sapiens, NCI-H520, 72 h; for inhibition at 1 µM: read-out: Inhibitory rates against tumor cell lines; for IC50: read-out: IC50 against different tumor cell lines. The protocol: as §1

Consider `C=C[C@]1(C)CC[C@@H](C(=C)CN(C)CCOC(=O)CCCC(=O)OCCOc2no[n+]([O-])c2S(=O)(=O)c2ccccc2)C[C@H]1C(=C)CCl` [Example 2, 4-(2-((5-(2-((2-((1R,3R,4S)-3-(3-chloroprop-1-en-2-yl)-4-methyl-4-vinylcyclohexyl)allyl)(methyl)amino)ethyoxyl)-5-oxopentanoyl)oxy)ethyoxyl)-3-(phenylsulfonyl)-1,2,5-oxadiazole 2-oxide], for which the NO-release concentrations is 2.10 µM in test [1] (5 min); 2.40 µM in test [1] (10 min); 2.84 µM in test [1] (20 min); 3.79 µM in test [1] (30 min); 6.74 µM in test [1] (60 min); 10.72 µM in test [1] (90 min). In test [1] (120 min), this compound yielded an NO-release concentrations of 14.97 µM. For the same compound, the inhibition at 1 µM worked out at 42.3 ± 3.7% with SW620, 56 ± 2.1% in the test with U87MG and 48.5 ± 3% with NCI-H520. In addition, the IC50 (usually the concentration that inhibits the measured activity by half) in the test on U87MG came to 358 ± 23 nM; in the test on NCI-H520 it was 777 ± 24 nM.
Take `C=C[C@]1(C)CC[C@@H](C(=C)CN2CCC(COC(=O)CCC(=O)OCC#CCOc3no[n+]([O-])c3S(=O)(=O)c3ccccc3)CC2)C[C@H]1C(=C)CCl` [Example 15, 4-((4-((4-((1-(2-((1R,3R,4S)-3-(3-chloroprop-1-en-2-yl)-4-methyl-4-vinylcyclohexyl)allyl)piperidin-4-yl)methoxyl)-4-oxobutanoyl)oxy)but-2-yn-1-yl)oxy)-3-(phenylsulfonyl)-1,2,5-oxadiazole 2-oxide]: the NO-release concentrations stood at 8.67 µM in test [1] (5 min); 10.07 µM in test [1] (10 min); 12.979 µM in test [1] (20 min); 15.92 µM in test [1] (30 min); 25.47 µM in test [1] (60 min); 36.31 µM in test [1] (90 min). In test [1] (120 min), this compound yielded an NO-release concentrations of 48.15 µM. The inhibition at 1 µM came to 31.3 ± 0.3% in the test with SW620, 40.5 ± 3.3% in the test with U87MG and 45.9 ± 1.4% with NCI-H520. For the same compound, the IC50 in the test on NCI-H520 came to 1040 ± 33 nM.
Take `C=C[C@]1(C)CC[C@@H](C(=C)CN2CCC(OC(=O)CCCC(=O)OCC#CCOc3no[n+]([O-])c3S(=O)(=O)c3ccccc3)C2)C[C@H]1C(=C)CCl` (stereo partly drawn) [Example 12, 4-((4-((5-(((S)-1-(2-((1R,3R,4S)-3-(3-chloroprop-1-en-2-yl)-4-methyl-4-vinylcyclohexyl)allyl)pyrrolidine-3-ly)oxy)-5-oxopentanoyl)oxy)but-2-yn-1-yl)oxy)-3-(phenylsulfonyl)-1,2,5-oxadiazole 2-oxide]: the NO-release concentrations in test [1] (5 min) worked out at 13.20 µM; in test [1] (10 min) it was 16.04 µM; in test [1] (20 min) it was 21.29 µM; in test [1] (30 min) it was 26.90 µM; in test [1] (60 min), 46.58 µM; in test [1] (90 min), 74.45 µM. This compound also had an NO-release concentrations in test [1] (120 min) of 103.92 µM. Besides, the inhibition at 1 µM came to 31.7 ± 1.4% with SW620, 47.8 ± 1.1% with U87MG and 39.1 ± 0.7% in the test with NCI-H520. In addition, the IC50 with U87MG was found to be 898 ± 54 nM.
As for `C=C[C@]1(C)CC[C@@H](C(=C)CN2CCCC(COC(=O)CCCC(=O)OCCOc3no[n+]([O-])c3S(=O)(=O)c3ccccc3)C2)C[C@H]1C(=C)CCl` (stereo partly drawn) [Example 18, 4-(2-((5-((1-(2-((1R,3R,4S)-3-(3-chloroprop-1-en-2-yl)-4-methyl-4-vinylcyclohexyl)allyl)piperidin-3-yl)methoxyl)-5-oxopentanoyl)oxy)ethyoxyl)-3-(phenylsulfonyl)-1,2,5-oxadiazole 2-oxide], the NO-release concentrations amounted to 8.89 µM in test [1] (5 min); 10.18 µM in test [1] (10 min); 12.42 µM in test [1] (20 min); 14.32 µM in test [1] (30 min); 21.50 µM in test [1] (60 min); 32.40 µM in test [1] (90 min). The same compound gave an NO-release concentrations in test [1] (120 min) of 42.83 µM. Besides, the figures for the inhibition at 1 µM with SW620, in the test on U87MG and in the test with NCI-H520 were 46.1 ± 0.9%, 48.3 ± 1.5% and 43.9 ± 1%, respectively. In addition, the IC50 with NCI-H520 came out at 1210 ± 152 nM.
Turning to `C=C[C@]1(C)CC[C@@H](C(=C)CN2CCCC(COC(=O)CCC(=O)OCCOc3no[n+]([O-])c3S(=O)(=O)c3ccccc3)C2)C[C@H]1C(=C)CCl` (stereo partly drawn) [Example 17, 4-(2-((4-((1-(2-((1R,3R,4S)-3-(3-chloroprop-1-en-2-yl)-4-methyl-4-vinylcyclohexyl)allyl)piperidin-3-yl)methoxyl)-4-oxobutanoyl)oxy)ethyoxyl)-3-(phenylsulfonyl)-1,2,5-oxadiazole 2-oxide], the NO-release concentrations in test [1] (5 min) was 4.84 µM; in test [1] (10 min), 5.66 µM; in test [1] (20 min), 6.95 µM; in test [1] (30 min), 8.44 µM; in test [1] (60 min), 12.43 µM; in test [1] (90 min), 17.81 µM. Moreover, the NO-release concentrations in test [1] (120 min) is 22.91 µM. The inhibition at 1 µM in the test on SW620 worked out at 38.3 ± 3%; in the test with U87MG it was 51 ± 2.2%; with NCI-H520, 45.4 ± 1.9%. Further, the IC50 is 1090 ± 40 nM with SW620 (read-out: IC50 against different tumor cell lines) and 811 ± 16 nM in the test on U87MG.
With `C=C[C@]1(C)CC[C@@H](C(=C)CN2CC[C@H](OC(=O)CCC(=O)OCCOc3no[n+]([O-])c3S(=O)(=O)c3ccccc3)C2)C[C@H]1C(=C)CCl` [Example 9, 4-(2-((4-(((S)-1-(2-((1R,3R,4S)-3-(3-chloroprop-1-en-2-yl)-4-methyl-4-vinylcyclohexyl)allyl)pyrrolidine-3-ly)oxy)-4-oxobutanoyl)oxy)ethyoxyl)-3-(phenylsulfonyl)-1,2,5-oxadiazole 2-oxide], the NO-release concentrations in test [1] (5 min) came out at 3.25 µM; in test [1] (10 min), 3.90 µM; in test [1] (20 min), 5.98 µM; in test [1] (30 min), 7.59 µM; in test [1] (60 min), 11.11 µM; in test [1] (90 min) it was 17.29 µM. In test [1] (120 min), the NO-release concentrations came to 23.48 µM. Further, the inhibition at 1 µM in the test with SW620 was found to be 39.3 ± 4.2%; with U87MG it was 51.3 ± 1.3%; in the test with NCI-H520, 44.5 ± 2.8%. The IC50 in the test with U87MG stood at 323 ± 13 nM.
In the case of `C=C[C@]1(C)CC[C@@H](C(=C)CN2CCN(CCOC(=O)CCCC(=O)OCCOc3no[n+]([O-])c3S(=O)(=O)c3ccccc3)CC2)C[C@H]1C(=C)CCl` [Example 22], the NO-release concentrations was 0.33 µM in test [1] (5 min); 0.90 µM in test [1] (10 min); 1.35 µM in test [1] (20 min); 1.91 µM in test [1] (30 min); 4.05 µM in test [1] (60 min); 7.20 µM in test [1] (90 min). Besides, the NO-release concentrations in test [1] (120 min) turned out to be 10.51 µM. For the same compound, the inhibition at 1 µM in the test with SW620 was 42.8 ± 0.5%; in the test with U87MG, 52.4 ± 2%; in the test with NCI-H520 it was 44.1 ± 2.4%. The IC50 turned out to be 372 ± 6 nM in the test on U87MG and 962 ± 54 nM in the test with NCI-H520.
With `C=C[C@]1(C)CC[C@@H](C(=C)CN2CCN(CCOC(=O)CCC(=O)OCC#CCOc3no[n+]([O-])c3S(=O)(=O)c3ccccc3)CC2)C[C@H]1C(=C)CCl` [Example 23, 4-((4-((4-(2-(4-(2-((1R,3R,4S)-3-(3-chloroprop-1-en-2-yl)-4-methyl-4-vinylcyclohexyl)allyl)piperazin-1-yl)ethyoxyl)-4-oxobutanoyl)oxy)but-2-yn-1-yl)oxy)-3-(phenylsulfonyl)-1,2,5-oxadiazole 2-oxide], the NO-release concentrations in test [1] (5 min) turned out to be 4.74 µM; in test [1] (10 min) it was 5.95 µM; in test [1] (20 min) it was 7.49 µM; in test [1] (30 min), 7.63 µM; in test [1] (60 min), 8.44 µM; in test [1] (90 min) it was 13.57 µM. The same compound displayed an NO-release concentrations in test [1] (120 min) of 17.82 µM. For the same compound, the inhibition at 1 µM in the test on SW620 was 21.2 ± 2.1%; in the test with U87MG it was 33.4 ± 1.5%; in the test on NCI-H520 it was 30.3 ± 2.9%.
